Measured values from ChEMBL document CHEMBL6092178, “Discovery of a novel KV7.2/7.3 channels agonist for the treatment of neuropathic pain” (Eur J Med Chem, 2024).
Calls of active or inactive are those of the source.

Key:
[1] = molecular target: Voltage-gated potassium channel, KQT; KCNQ2(Kv7.2)/KCNQ3(Kv7.3) (Homo sapiens, UniProt O43525+O43526); assay: Agonist activity at human KCNQ2/3 transfected in human HEK293 cells incubated for 30 mins by fluorimetric assay; assay type: cell-based
[2] = molecular target: Voltage-gated potassium channel, KQT; KCNQ2(Kv7.2)/KCNQ3(Kv7.3) (Homo sapiens) (UniProt O43526+O43525); assay: Agonist activity at human KCNQ2/3 transfected in human HEK293 cells incubated for 30 mins by fluorimetric assay relative to flupirtine; assay type: cell-based; settings: filed as agonist
[3] = Hepatotoxicity in rat assessed as change in serum AST level at 10 to 40 mg/kg, IG administered for 28 days and measured after 14 days; assay type: toxicity, organism-based; settings: in vivo, po, 672 h, dose 10-40 mg/kg, time 28 day
[4] = Hepatotoxicity in rat assessed as change in serum ALP level at 10 to 40 mg/kg, IG administered for 28 days and measured after 14 days; assay type: toxicity, organism-based; settings: in vivo, po, 672 h, dose 10-40 mg/kg, time 28 day
[5] = Hepatotoxicity in rat assessed as change in serum total bilirubin (TBIL) level at 10 to 40 mg/kg, IG administered for 28 days and measured after 14 days; assay type: toxicity, organism-based; settings: in vivo, po, 672 h, dose 10-40 mg/kg, time 28 day
[6] = Hepatotoxicity in rat assessed as increase in serum ALT level at 20 to 40 mg/kg, IG administered for 28 days and measured after 14 days relative to control; assay type: toxicity, organism-based; settings: in vivo, po, 672 h, dose 20-40 mg/kg, time 28 day
[7] = molecular target: GABA-A receptor; anion channel (Homo sapiens) (UniProt P14867+P47870+P18507+P28472+P48169+Q99928+Q9UN88+P34903+O00591+O14764+Q8N1C3+P18505+P78334+P47869+P31644+Q16445); assay: Inhibition of GABAA receptor (unknown origin) relative to control; assay type: protein-complex assay; settings: concentration not given here
[8] = molecular target: Glutamate [NMDA] receptor (Homo sapiens) (UniProt Q05586+Q12879+Q13224+O15399+O60391+Q14957+Q8TCU5); assay: Inhibition of NMDA receptor (unknown origin) relative to control; assay type: protein-complex assay; settings: concentration not given here
[9] = molecular target: Voltage-gated inwardly rectifying potassium channel KCNH2 (Homo sapiens, UniProt Q12809); assay: Inhibition of hERG expressed in HEK293 cells by patch clamp method; assay type: toxicity, cell-based
Chain of Voltage-gated inwardly rectifying potassium channel KCNH2 (Q12809 whole entry): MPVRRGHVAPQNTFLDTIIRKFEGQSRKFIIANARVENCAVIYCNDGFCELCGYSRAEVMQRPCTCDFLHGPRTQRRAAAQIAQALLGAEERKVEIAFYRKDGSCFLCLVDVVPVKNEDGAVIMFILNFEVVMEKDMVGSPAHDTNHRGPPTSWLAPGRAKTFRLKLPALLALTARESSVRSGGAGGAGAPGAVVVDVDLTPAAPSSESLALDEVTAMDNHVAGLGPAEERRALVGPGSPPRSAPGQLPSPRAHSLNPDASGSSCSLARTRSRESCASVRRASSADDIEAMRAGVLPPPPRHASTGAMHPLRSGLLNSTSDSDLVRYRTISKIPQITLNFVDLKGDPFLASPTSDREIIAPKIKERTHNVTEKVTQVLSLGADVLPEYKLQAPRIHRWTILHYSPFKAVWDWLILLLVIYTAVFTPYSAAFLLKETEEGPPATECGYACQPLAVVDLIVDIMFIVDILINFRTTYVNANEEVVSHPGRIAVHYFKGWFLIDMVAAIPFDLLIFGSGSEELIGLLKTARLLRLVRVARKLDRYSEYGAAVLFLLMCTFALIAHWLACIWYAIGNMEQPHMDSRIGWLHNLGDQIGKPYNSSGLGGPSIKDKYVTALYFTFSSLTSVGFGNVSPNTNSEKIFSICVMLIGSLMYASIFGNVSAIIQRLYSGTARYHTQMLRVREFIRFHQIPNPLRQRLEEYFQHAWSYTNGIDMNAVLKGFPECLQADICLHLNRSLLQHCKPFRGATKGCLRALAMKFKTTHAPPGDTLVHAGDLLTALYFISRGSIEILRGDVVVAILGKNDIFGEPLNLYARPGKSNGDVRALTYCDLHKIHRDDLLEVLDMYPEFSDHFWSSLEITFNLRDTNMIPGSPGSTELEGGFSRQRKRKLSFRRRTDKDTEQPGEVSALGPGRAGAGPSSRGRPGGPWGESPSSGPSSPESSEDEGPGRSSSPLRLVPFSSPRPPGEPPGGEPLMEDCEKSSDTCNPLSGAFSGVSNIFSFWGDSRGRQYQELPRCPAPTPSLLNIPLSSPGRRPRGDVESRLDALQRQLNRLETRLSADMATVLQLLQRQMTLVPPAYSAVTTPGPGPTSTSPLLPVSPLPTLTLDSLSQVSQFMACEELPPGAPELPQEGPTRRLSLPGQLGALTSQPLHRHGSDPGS

[10] = species: Homo sapiens; assay: Inhibition of serotonin receptor (unknown origin) relative to control; settings: concentration not given here
[11] = molecular target: Mu-type opioid receptor (Homo sapiens) (UniProt P35372); assay: Inhibition of mu-opioid receptor (unknown origin) relative to control; settings: concentration not given here
Chain of Mu-type opioid receptor (Homo sapiens) (P35372 whole entry): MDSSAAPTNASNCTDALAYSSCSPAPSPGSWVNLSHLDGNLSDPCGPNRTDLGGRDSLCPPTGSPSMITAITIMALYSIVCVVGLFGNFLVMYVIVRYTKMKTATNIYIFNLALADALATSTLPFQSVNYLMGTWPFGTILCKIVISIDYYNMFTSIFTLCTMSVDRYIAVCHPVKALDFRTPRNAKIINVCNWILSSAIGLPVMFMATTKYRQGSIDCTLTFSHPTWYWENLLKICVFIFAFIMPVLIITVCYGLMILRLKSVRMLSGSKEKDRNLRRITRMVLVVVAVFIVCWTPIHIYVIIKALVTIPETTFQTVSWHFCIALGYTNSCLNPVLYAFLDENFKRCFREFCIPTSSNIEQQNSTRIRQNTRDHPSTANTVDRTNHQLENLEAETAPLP

[12] = molecular target: Histamine H3 receptor (Homo sapiens) (UniProt Q9Y5N1); assay: Inhibition of H3 receptor (unknown origin) relative to control; settings: concentration not given here
Chain of Histamine H3 receptor (Homo sapiens) (Q9Y5N1 whole entry): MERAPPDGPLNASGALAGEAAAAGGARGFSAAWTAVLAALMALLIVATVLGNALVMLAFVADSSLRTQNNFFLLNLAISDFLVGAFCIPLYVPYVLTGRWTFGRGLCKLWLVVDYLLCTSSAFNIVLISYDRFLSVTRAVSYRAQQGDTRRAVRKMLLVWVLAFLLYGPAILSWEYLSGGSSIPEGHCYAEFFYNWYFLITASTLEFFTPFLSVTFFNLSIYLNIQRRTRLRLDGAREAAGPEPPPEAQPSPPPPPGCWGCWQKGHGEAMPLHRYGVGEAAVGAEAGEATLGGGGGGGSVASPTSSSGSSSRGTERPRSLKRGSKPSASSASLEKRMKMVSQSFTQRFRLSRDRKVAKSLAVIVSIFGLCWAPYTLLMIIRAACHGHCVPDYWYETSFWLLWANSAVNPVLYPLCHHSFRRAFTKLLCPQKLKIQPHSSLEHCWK

[13] = species: Homo sapiens; assay: Inhibition of voltage-gated sodium channel Nav 1.7 (unknown origin) relative to control; settings: concentration not given here
[14] = molecular target: Transient receptor potential cation channel subfamily V member 1 (Homo sapiens) (UniProt Q8NER1); assay: Inhibition of TRPV-1 (unknown origin) relative to control; settings: concentration not given here
Chain of Transient receptor potential cation channel subfamily V member 1 (Homo sapiens) (Q8NER1 whole entry): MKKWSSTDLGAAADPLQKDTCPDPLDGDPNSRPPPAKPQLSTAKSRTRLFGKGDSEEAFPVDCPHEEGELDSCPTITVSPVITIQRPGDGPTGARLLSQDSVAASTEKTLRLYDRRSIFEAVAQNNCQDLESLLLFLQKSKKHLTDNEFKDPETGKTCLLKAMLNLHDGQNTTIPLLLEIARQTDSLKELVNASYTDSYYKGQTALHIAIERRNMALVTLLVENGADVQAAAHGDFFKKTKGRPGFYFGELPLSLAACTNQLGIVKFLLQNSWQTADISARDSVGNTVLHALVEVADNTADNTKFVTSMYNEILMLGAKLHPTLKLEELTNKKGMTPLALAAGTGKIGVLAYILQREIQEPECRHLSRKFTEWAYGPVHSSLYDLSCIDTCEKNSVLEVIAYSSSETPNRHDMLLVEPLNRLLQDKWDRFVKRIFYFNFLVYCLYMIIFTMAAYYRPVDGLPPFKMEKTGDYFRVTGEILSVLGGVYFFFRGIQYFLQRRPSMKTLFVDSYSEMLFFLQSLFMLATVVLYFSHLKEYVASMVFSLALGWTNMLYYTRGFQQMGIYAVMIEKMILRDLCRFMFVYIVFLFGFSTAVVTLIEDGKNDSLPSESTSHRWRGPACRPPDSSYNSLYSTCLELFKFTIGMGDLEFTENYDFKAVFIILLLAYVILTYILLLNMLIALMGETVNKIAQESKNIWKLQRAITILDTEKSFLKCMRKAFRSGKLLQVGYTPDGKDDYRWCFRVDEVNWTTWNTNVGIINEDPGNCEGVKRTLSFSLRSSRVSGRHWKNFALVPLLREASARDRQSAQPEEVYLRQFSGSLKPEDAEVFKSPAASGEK

[15] = Acute toxicity in mouse assessed as lethal dose at IG administration measured after 7 days; settings: in vivo, po, time 7 day
[16] = Acute toxicity in mouse assessed as lethal dose at iv administration measured after 7 days; assay type: organism-based; settings: in vivo, time 7 day
[17] = Acute toxicity in mouse assessed as lethal dose at ip administration measured after 7 days; assay type: organism-based; settings: in vivo, time 7 day
[18] = tested on: Rattus norvegicus; assay: Antinociceptive activity against formalin-induced pain in male Sprague-Dawley rat assessed as reduction in nociceptive response at 20 mg/kg, IG pretreated for 5 mins followed by formalin challenge and measured for first 9 mins (phase I); assay type: functional, organism-based; settings: time 14.0 min
[19] = tested on: Rattus norvegicus; assay: Antinociceptive activity against formalin-induced pain in male Sprague-Dawley rat assessed as reduction in nociceptive response at 20 mg/kg, IG pretreated for 5 mins followed by formalin challenge and measured for 10 to 60 mins (phase II); assay type: functional, organism-based
[20] = tested on: Rattus norvegicus; assay: Antinociceptive activity against formalin-induced pain in male Sprague-Dawley rat assessed as reduction in nociceptive response at IG administration pretreated for 5 mins followed by formalin challenge and measured for 9 mins (phase I); assay type: functional; settings: po, 14 min
[21] = tested on: Rattus norvegicus; assay: Antinociceptive activity against formalin-induced pain in male Sprague-Dawley rat assessed as reduction in nociceptive response in phase II at IG administration pretreated for 5 mins followed by formalin challenge and measured after 60 mins; assay type: functional; settings: po, 1.083 h, time 65 min
[22] = tested on: Rattus norvegicus; assay: Antiallodynic activity in IG dosed spinal nerve ligation-induced neuropathic pain male Sprague-Dawley rat model assessed as mechanical withdrawal threshold pretreated with compound for 1 hr and measured on day 15 after surgery; assay type: functional
[23] = tested on: Rattus norvegicus; assay: Antiallodynic activity in spinal nerve ligation-induced neuropathic pain male Sprague-Dawley rat model assessed as mechanical withdrawal threshold at 40 mg/kg, IG pretreated with compound for 1 hr and measured on day 15 after surgery; assay type: functional, organism-based; settings: time 15.0 day
[24] = tested on: Rattus norvegicus; assay: Antiallodynic activity against oxaliplatin-induced neuropathic pain Sprague-Dawley rat model assessed as increased mechanical withdrawal threshold at 10 to 40 mg/kg, IG measured for 48 hrs; assay type: functional, organism-based; settings: dose 10-40 mg/kg
[25] = tested on: Rattus norvegicus; assay: Antiallodynic activity against oxaliplatin-induced neuropathic pain Sprague-Dawley rat model assessed as increased mechanical withdrawal threshold at IG administration and measured after 48 hrs; assay type: functional; settings: po
[26] = tested on: Rattus norvegicus; assay: Antiallodynic activity against oxaliplatin-induced neuropathic pain Sprague-Dawley rat model assessed as increased mechanical withdrawal threshold at 40 mg/kg, IG measured after 48 hrs; assay type: functional, organism-based; settings: time 1.0 hrs
[27] = tested on: Rattus norvegicus; assay: Antiallodynic activity in CCI-induced neuropathic pain Sprague-Dawley rat model assessed as attenuation of mechanical allodynia at 10 to 40 mg/kg, IG pretreated with compound for 1 hrs and measured on day 15 after surgery; assay type: functional, organism-based; settings: dose 10-40 mg/kg, time 15.0 day
[28] = tested on: Rattus norvegicus; assay: Antiallodynic activity in CCI-induced neuropathic pain Sprague-Dawley rat model assessed as attenuation of mechanical allodynia at IG administration pretreated with compound for 1 hrs and measured on day 15 after surgery; assay type: functional; settings: dose 10-40 mg/kg
[29] = tested on: Rattus norvegicus; assay: Antiallodynic activity in CCI-induced neuropathic pain Sprague-Dawley rat model assessed as attenuation of mechanical allodynia at 20 mg/kg, IG administration pretreated with compound for 1 hrs and measured on day 15 after surgery; assay type: functional, organism-based; settings: time 15.0 day
[30] = species: Rattus norvegicus; assay: Analgesic activity in streptozotocin-induced diabetic peripheral neuropathic pain male Sprague-Dawley rat model pretreated with compound for 1 hrs and measured on day 15 after surgery; assay type: functional; settings: dose 10-40 mg/kg
[31] = tested on: Rattus norvegicus; assay: Analgesic activity in streptozotocin-induced diabetic peripheral neuropathic pain male Sprague-Dawley rat model at 10 to 40 mg/kg pretreated with compound for 1 hrs and measured on day 15 after surgery; assay type: functional, organism-based; settings: dose 10-40 mg/kg
[32] = tested on: Mus musculus; assay: Induction of motor coordination impairment in mouse at 10 to 40 mg/kg, IG measured upto 120 mins by rotarod method; assay type: functional, organism-based; settings: dose 10-40 mg/kg
[33] = AUC (0 to t) in male Sprague-Dawley rat at 5 mg/kg, iv measured upto 24 hrs by LC-MS/MS analysis; assay type: ADME, organism-based; settings: in vivo
[34] = AUC (0 to t) in male Sprague-Dawley rat at 30 mg/kg, IG measured upto 24 hrs by LC-MS/MS analysis; assay type: ADME, organism-based; settings: in vivo, po
[35] = AUC (0 to infinity) in male Sprague-Dawley rat at 5 mg/kg, iv measured upto 24 hrs by LC-MS/MS analysis; assay type: ADME, organism-based; settings: in vivo
[36] = AUC (0 to infinity) in male Sprague-Dawley rat at 30 mg/kg, IG measured upto 24 hrs by LC-MS/MS analysis; assay type: ADME, organism-based; settings: in vivo, po
[37] = Half life in male Sprague-Dawley rat at 5 mg/kg, iv measured upto 24 hrs by LC-MS/MS analysis; assay type: ADME, organism-based; settings: in vivo
[38] = Half life in male Sprague-Dawley rat at 30 mg/kg, IG measured upto 24 hrs by LC-MS/MS analysis; assay type: ADME, organism-based; settings: in vivo, po
[39] = Tmax in male Sprague-Dawley rat at 30 mg/kg, IG measured upto 24 hrs by LC-MS/MS analysis; assay type: ADME, organism-based; settings: in vivo, po
[40] = Clearance in male Sprague-Dawley rat at 5 mg/kg, iv measured upto 24 hrs by LC-MS/MS analysis; assay type: ADME, organism-based; settings: in vivo
[41] = Clearance in male Sprague-Dawley rat at 30 mg/kg, IG measured upto 24 hrs by LC-MS/MS analysis; assay type: ADME, organism-based; settings: in vivo, po
[42] = Cmax in male Sprague-Dawley rat at 5 mg/kg, iv measured upto 24 hrs by LC-MS/MS analysis; assay type: ADME, organism-based; settings: in vivo
[43] = Cmax in male Sprague-Dawley rat at 30 mg/kg, IG measured upto 24 hrs by LC-MS/MS analysis; assay type: ADME, organism-based; settings: in vivo, po
[44] = Oral bioavailability in male Sprague-Dawley rat at 30 mg/kg measured upto 24 hrs by LC-MS/MS analysis; assay type: ADME, organism-based; settings: in vivo

Chain of Voltage-gated potassium channel, KQT; KCNQ2(Kv7.2)/KCNQ3(Kv7.3) (O43526 whole entry): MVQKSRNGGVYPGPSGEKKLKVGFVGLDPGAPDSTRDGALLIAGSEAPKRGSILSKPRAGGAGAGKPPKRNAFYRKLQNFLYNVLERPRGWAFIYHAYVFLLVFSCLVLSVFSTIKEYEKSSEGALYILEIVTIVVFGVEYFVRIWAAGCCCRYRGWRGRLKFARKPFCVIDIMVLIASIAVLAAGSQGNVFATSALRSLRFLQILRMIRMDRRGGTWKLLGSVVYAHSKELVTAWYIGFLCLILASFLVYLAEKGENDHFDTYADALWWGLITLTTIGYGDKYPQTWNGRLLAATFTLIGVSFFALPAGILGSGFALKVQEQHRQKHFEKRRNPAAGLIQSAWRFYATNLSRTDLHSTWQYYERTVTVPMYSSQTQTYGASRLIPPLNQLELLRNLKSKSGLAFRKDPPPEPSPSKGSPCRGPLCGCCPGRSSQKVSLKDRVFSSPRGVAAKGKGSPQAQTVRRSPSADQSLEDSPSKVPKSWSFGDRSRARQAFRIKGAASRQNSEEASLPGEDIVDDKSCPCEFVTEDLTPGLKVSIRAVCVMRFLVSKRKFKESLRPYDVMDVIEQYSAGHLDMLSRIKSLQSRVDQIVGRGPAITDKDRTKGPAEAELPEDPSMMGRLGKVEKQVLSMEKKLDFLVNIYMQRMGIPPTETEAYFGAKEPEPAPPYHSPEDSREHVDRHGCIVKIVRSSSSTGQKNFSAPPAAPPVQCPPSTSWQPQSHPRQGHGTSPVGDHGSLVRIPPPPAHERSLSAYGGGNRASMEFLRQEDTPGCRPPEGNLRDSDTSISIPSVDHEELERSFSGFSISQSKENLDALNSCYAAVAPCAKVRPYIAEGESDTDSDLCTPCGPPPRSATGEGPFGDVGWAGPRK
Chain of Voltage-gated potassium channel, KQT; KCNQ2(Kv7.2)/KCNQ3(Kv7.3) (O43525 whole entry): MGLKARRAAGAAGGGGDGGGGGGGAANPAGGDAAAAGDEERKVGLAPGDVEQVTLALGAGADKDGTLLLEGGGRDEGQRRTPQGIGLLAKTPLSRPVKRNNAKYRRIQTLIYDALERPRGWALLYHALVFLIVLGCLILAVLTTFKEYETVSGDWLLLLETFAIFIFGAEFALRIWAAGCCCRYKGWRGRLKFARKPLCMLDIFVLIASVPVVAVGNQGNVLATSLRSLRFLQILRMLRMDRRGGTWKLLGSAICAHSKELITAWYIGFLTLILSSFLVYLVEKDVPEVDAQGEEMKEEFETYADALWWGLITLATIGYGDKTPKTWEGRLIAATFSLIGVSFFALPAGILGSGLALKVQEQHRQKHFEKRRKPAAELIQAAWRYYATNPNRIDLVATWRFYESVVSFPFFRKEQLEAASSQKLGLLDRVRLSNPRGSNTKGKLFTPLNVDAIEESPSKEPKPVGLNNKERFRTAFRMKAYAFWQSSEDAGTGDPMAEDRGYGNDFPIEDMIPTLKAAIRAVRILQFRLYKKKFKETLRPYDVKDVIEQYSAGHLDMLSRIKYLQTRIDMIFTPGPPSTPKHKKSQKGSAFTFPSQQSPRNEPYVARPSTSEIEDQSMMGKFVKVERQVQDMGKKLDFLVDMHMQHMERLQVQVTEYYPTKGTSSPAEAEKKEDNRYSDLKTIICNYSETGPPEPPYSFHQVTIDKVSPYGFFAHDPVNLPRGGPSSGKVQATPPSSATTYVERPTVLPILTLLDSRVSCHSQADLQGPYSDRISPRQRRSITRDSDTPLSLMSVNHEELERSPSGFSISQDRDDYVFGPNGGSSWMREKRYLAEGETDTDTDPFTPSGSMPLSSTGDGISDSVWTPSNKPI

CC(=O)Nc1nc(OCc2ccc(F)cc2)ccc1N
EC50 [1]: 1.03 µM | Activity [2]: 184% | Activity [3]: Non-toxic | Activity [4]: Non-toxic | Activity [5]: Non-toxic | Activity [6]: < 70% | inhibition [7]: 59.5% | inhibition [8]: 69.7% | IC50 [9]: 448 µM | inhibition [10]: < 50% | inhibition [11]: < 50% | inhibition [12]: < 50% | inhibition [13]: < 50% | inhibition [14]: < 50% | LD50 at 168 h [15]: > 2000 mg/kg | LD50 at 168 h [16]: 267 mg/kg | LD50 at 168 h [17]: 421 mg/kg | Activity [18]: Active | Activity [19]: Active | ED50 [20]: 16.2 mg/kg | ED50 [21]: 14.7 mg/kg | ED50 ([22]; po, 360 h, time 15 day): 14.9 mg/kg | Activity ([22]; time 15.0 day): Dose-dependent-effect | Activity [23]: Active; Superior Activity Observed Than Pregabalin | Activity [24]: Active | ED50 [25]: 12.2 mg/kg | Activity [26]: Active; Inhibition Of Pain Was Higher Than Pregabalin | Activity [27]: Active | Activity ([28]; time 15.0 day): Dose-dependent-effect | ED50 ([28]; po, 360 h, time 15 day): 12 mg/kg | Activity [29]: Active; Higher Value Observed Than Pregabalin | ED50 ([30]; 360 h, time 15 day): 9.63 mg/kg | Activity ([30]; time 15.0 day): Dose-dependent-effect | Activity [31]: Active; Better Activity Than Pregabalin Observed | Activity [32]: Active | AUC(0-t) at 24 h [33]: 1100 ng·h/mL | AUC(0-t) at 24 h [34]: 4110 ng·h/mL | AUC(0-inf) [35]: 1520 ng·h/mL | AUC(0-inf) [36]: 4270 ng·h/mL | half-life [37]: 12.8 h | half-life [38]: 3.5 h | Tmax [39]: 0.17 h | clearance [40]: 56.7 mL/min/kg | CL/F [41]: 120 mL/min/kg | Cmax [42]: 2850 ng/mL | Cmax [43]: 3340 ng/mL | bioavailability [44]: 46.7%
